# Measurements reported in PubChem BioAssay AID2060885 (Molecular Pharmacology Branch, DTP, NCI, 2025).
# Tested on: NCI-H23 complex spheroids with HUVEC/MSC, viability
# Assay: Anticancer human tumor NCI-H23 cell line growth inhibition [RAS];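 note: spheroids exposed to compound for 7 days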;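 for viability, T/C: 100% = DMSO vehicle control viability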
# Settings: for IC50: curve of first compound; for viability, T/C: stronger effect = lower value
# Procedure, shortened: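 Tumour cells grown as complex spheroids with HUVEC endothelial cells and mesenchymal stem cells, treated with RAS pathway inhibitor combinations. Each agent spans half-log steps from near clinical Cmax, or 10 microM where Cmax is unknown.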
# [1] = second compound 0.0316 µM, first compound 0.0316 µM
# [2] = second compound 0.0316 µM, first compound 0.1 µM
# [3] = second compound 0.1 µM, first compound 0.0316 µM
# [4] = second compound 0.1 µM, first compound 0.1 µM
# [5] = second compound 0.316 µM, first compound 0.0316 µM
# [6] = second compound 0.316 µM, first compound 0.1 µM
# [7] = second compound 1 µM, first compound 0.0316 µM
# [8] = second compound 1 µM, first compound 0.1 µM
structure (smiles),measurement,setting,value
CC(C)n1nc(-c2ccc3oc(N)nc3c2)c2c(N)ncnc21 + C=CC(=O)N1CCN(c2nc(OCC3CCCN3C)nc3c(F)c(-c4nc(N)cc(C)c4C(F)(F)F)c(Cl)cc23)C(C)C1,IC50,second compound 0.00316 µM,3.25 nM
same,IC50,second compound 0.01 µM,0.445 nM
same,IC50,second compound 0.0316 µM,< 0.316 nM
same,IC50,second compound 0.1 µM,< 0.316 nM
same,IC50,second compound 0.316 µM,< 0.316 nM
same,IC50,second compound 1 µM,< 0.316 nM
same,"viability, T/C","second compound 0.00316 µM, first compound 0.000316 µM",58.9%
same,"viability, T/C","second compound 0.00316 µM, first compound 0.001 µM",68.7%
same,"viability, T/C","second compound 0.00316 µM, first compound 0.00316 µM",45.9%
same,"viability, T/C","second compound 0.00316 µM, first compound 0.01 µM",35.2%
same,"viability, T/C","second compound 0.00316 µM, first compound 0.0316 µM",27.3%
same,"viability, T/C","second compound 0.00316 µM, first compound 0.1 µM",17.7%
same,"viability, T/C","second compound 0.01 µM, first compound 0.000316 µM",52.1%
same,"viability, T/C","second compound 0.01 µM, first compound 0.001 µM",44.1%
same,"viability, T/C","second compound 0.01 µM, first compound 0.00316 µM",35.5%
same,"viability, T/C","second compound 0.01 µM, first compound 0.01 µM",25.7%
same,"viability, T/C","second compound 0.01 µM, first compound 0.0316 µM",21.2%
same,"viability, T/C","second compound 0.01 µM, first compound 0.1 µM",16.9%
same,"viability, T/C","second compound 0.0316 µM, first compound 0.000316 µM",39.7%
same,"viability, T/C","second compound 0.0316 µM, first compound 0.001 µM",43.7%
same,"viability, T/C","second compound 0.0316 µM, first compound 0.00316 µM",28.2%
same,"viability, T/C","second compound 0.0316 µM, first compound 0.01 µM",26.2%
same,"viability, T/C",[1],17.3%
same,"viability, T/C",[2],16.9%
same,"viability, T/C","second compound 0.1 µM, first compound 0.000316 µM",37.8%
same,"viability, T/C","second compound 0.1 µM, first compound 0.001 µM",32.5%
same,"viability, T/C","second compound 0.1 µM, first compound 0.00316 µM",26.3%
same,"viability, T/C","second compound 0.1 µM, first compound 0.01 µM",23.8%
same,"viability, T/C",[3],17.9%
same,"viability, T/C",[4],14.2%
same,"viability, T/C","second compound 0.316 µM, first compound 0.000316 µM",30.6%
same,"viability, T/C","second compound 0.316 µM, first compound 0.001 µM",38.3%
same,"viability, T/C","second compound 0.316 µM, first compound 0.00316 µM",29.5%
same,"viability, T/C","second compound 0.316 µM, first compound 0.01 µM",22.3%
same,"viability, T/C",[5],17.1%
same,"viability, T/C",[6],15.8%
same,"viability, T/C","second compound 1 µM, first compound 0.000316 µM",27.9%
same,"viability, T/C","second compound 1 µM, first compound 0.001 µM",33.8%
same,"viability, T/C","second compound 1 µM, first compound 0.00316 µM",32.2%
same,"viability, T/C","second compound 1 µM, first compound 0.01 µM",25.9%
same,"viability, T/C",[7],22.5%
same,"viability, T/C",[8],16.2%
CCC(CC)c1cc(NC2CCC(N)C2)n2nccc2n1 (stereo unspecified) + C#Cc1c(F)ccc2cc(O)cc(-c3ncc4c(N5CC6CCC(C5)N6)nc(OCC56CCCN5CC(F)C6)nc4c3F)c12,IC50,second compound 0.0316 µM,1800 nM
same,IC50,second compound 0.1 µM,1780 nM
same,IC50,second compound 0.316 µM,1680 nM
same,IC50,second compound 1 µM,1440 nM
same,IC50,second compound 3.16 µM,1110 nM
same,IC50,second compound 10 µM,< 31.6 nM
same,"viability, T/C",[1],102%
same,"viability, T/C",[2],129%
same,"viability, T/C","second compound 0.0316 µM, first compound 0.316 µM",99.8%
same,"viability, T/C","second compound 0.0316 µM, first compound 1 µM",89.4%
same,"viability, T/C","second compound 0.0316 µM, first compound 3.16 µM",12.8%
same,"viability, T/C","second compound 0.0316 µM, first compound 10 µM",1.4%
same,"viability, T/C",[3],109%
same,"viability, T/C",[4],127%
same,"viability, T/C","second compound 0.1 µM, first compound 0.316 µM",104%
same,"viability, T/C","second compound 0.1 µM, first compound 1 µM",90.9%
same,"viability, T/C","second compound 0.1 µM, first compound 3.16 µM",9.22%
same,"viability, T/C","second compound 0.1 µM, first compound 10 µM",1.06%
same,"viability, T/C",[5],113%
same,"viability, T/C",[6],128%
same,"viability, T/C","second compound 0.316 µM, first compound 0.316 µM",98.9%
same,"viability, T/C","second compound 0.316 µM, first compound 1 µM",83.1%
same,"viability, T/C","second compound 0.316 µM, first compound 3.16 µM",10.2%
same,"viability, T/C","second compound 0.316 µM, first compound 10 µM",1.06%
same,"viability, T/C",[7],108%
same,"viability, T/C",[8],121%
same,"viability, T/C","second compound 1 µM, first compound 0.316 µM",92%
same,"viability, T/C","second compound 1 µM, first compound 1 µM",71.6%
same,"viability, T/C","second compound 1 µM, first compound 3.16 µM",9.15%
same,"viability, T/C","second compound 1 µM, first compound 10 µM",0.7%
same,"viability, T/C","second compound 3.16 µM, first compound 0.0316 µM",76.2%
same,"viability, T/C","second compound 3.16 µM, first compound 0.1 µM",70.1%
same,"viability, T/C","second compound 3.16 µM, first compound 0.316 µM",57.7%
same,"viability, T/C","second compound 3.16 µM, first compound 1 µM",55.3%
same,"viability, T/C","second compound 3.16 µM, first compound 3.16 µM",5.85%
same,"viability, T/C","second compound 3.16 µM, first compound 10 µM",0.62%
same,"viability, T/C","second compound 10 µM, first compound 0.0316 µM",36.7%
same,"viability, T/C","second compound 10 µM, first compound 0.1 µM",45.5%
same,"viability, T/C","second compound 10 µM, first compound 0.316 µM",41.9%
same,"viability, T/C","second compound 10 µM, first compound 1 µM",37.9%
same,"viability, T/C","second compound 10 µM, first compound 3.16 µM",3.49%
same,"viability, T/C","second compound 10 µM, first compound 10 µM",1.1%
CC(C)NCC(C(=O)N1CCN(c2ncnc3c2C(C)CC3O)CC1)c1ccc(Cl)cc1 (stereo unspecified) + CCn1c(-c2cccnc2C(C)OC)c2c3cc(ccc31)N1CCOC(CC(NC(=O)C(C(C)C)N(C)C(=O)C3(F)CCN(C(=O)C#CC(C)(C)N(C)C)CC3)C(=O)N3CCCC(N3)C(=O)OCC(C)(C)C2)C1,IC50,second compound 0.000949 µM,< 31.6 nM
same,IC50,second compound 0.003 µM,< 31.6 nM
same,IC50,second compound 0.00949 µM,< 31.6 nM
same,IC50,second compound 0.03 µM,< 31.6 nM
same,IC50,second compound 0.0949 µM,< 31.6 nM
same,IC50,second compound 0.3 µM,< 31.6 nM
same,"viability, T/C","second compound 0.000949 µM, first compound 0.0316 µM",33.6%
same,"viability, T/C","second compound 0.000949 µM, first compound 0.1 µM",35.1%
same,"viability, T/C","second compound 0.000949 µM, first compound 0.316 µM",23.7%
same,"viability, T/C","second compound 0.000949 µM, first compound 1 µM",23.4%
same,"viability, T/C","second compound 0.000949 µM, first compound 3.16 µM",17.5%
same,"viability, T/C","second compound 0.000949 µM, first compound 10 µM",11.6%
same,"viability, T/C","second compound 0.003 µM, first compound 0.0316 µM",33.8%
same,"viability, T/C","second compound 0.003 µM, first compound 0.1 µM",27.3%
same,"viability, T/C","second compound 0.003 µM, first compound 0.316 µM",22%
same,"viability, T/C","second compound 0.003 µM, first compound 1 µM",18.7%
same,"viability, T/C","second compound 0.003 µM, first compound 3.16 µM",18.1%
same,"viability, T/C","second compound 0.003 µM, first compound 10 µM",10.3%
same,"viability, T/C","second compound 0.00949 µM, first compound 0.0316 µM",28.9%
same,"viability, T/C","second compound 0.00949 µM, first compound 0.1 µM",24.2%
same,"viability, T/C","second compound 0.00949 µM, first compound 0.316 µM",25.3%
same,"viability, T/C","second compound 0.00949 µM, first compound 1 µM",19.6%
same,"viability, T/C","second compound 0.00949 µM, first compound 3.16 µM",14.9%
same,"viability, T/C","second compound 0.00949 µM, first compound 10 µM",12.3%
same,"viability, T/C","second compound 0.03 µM, first compound 0.0316 µM",30.9%
same,"viability, T/C","second compound 0.03 µM, first compound 0.1 µM",25.3%
same,"viability, T/C","second compound 0.03 µM, first compound 0.316 µM",25.2%
same,"viability, T/C","second compound 0.03 µM, first compound 1 µM",20.4%
same,"viability, T/C","second compound 0.03 µM, first compound 3.16 µM",13.8%
same,"viability, T/C","second compound 0.03 µM, first compound 10 µM",12.3%
same,"viability, T/C","second compound 0.0949 µM, first compound 0.0316 µM",24.3%
same,"viability, T/C","second compound 0.0949 µM, first compound 0.1 µM",26.8%
same,"viability, T/C","second compound 0.0949 µM, first compound 0.316 µM",22.6%
same,"viability, T/C","second compound 0.0949 µM, first compound 1 µM",19.6%
same,"viability, T/C","second compound 0.0949 µM, first compound 3.16 µM",13.3%
same,"viability, T/C","second compound 0.0949 µM, first compound 10 µM",12.5%
same,"viability, T/C","second compound 0.3 µM, first compound 0.0316 µM",21.4%
same,"viability, T/C","second compound 0.3 µM, first compound 0.1 µM",23.2%
same,"viability, T/C","second compound 0.3 µM, first compound 0.316 µM",22%
same,"viability, T/C","second compound 0.3 µM, first compound 1 µM",16.6%
same,"viability, T/C","second compound 0.3 µM, first compound 3.16 µM",11.6%
same,"viability, T/C","second compound 0.3 µM, first compound 10 µM",13.5%
